# Values of other authors in patent US12324852B2, “Administration of benzodiazepine compositions” (Neurelis, Inc., priority 2011, dated 2025).
smiles,measurement,setting,value
"Cc1ncc2n1-c1ccc(Cl)cc1C(c1ccccc1F)=NC2 [Midazolam, 8-chloro-6-(2-fluorophenyl)-1-methyl-4H-imidazo(1,5-a)benzodiazepine]",solubility in most aqueous solutions,neutral pH (e.g. about 6 to 8),relatively insoluble
same,solubility in water,pH lower than about 4,soluble in water
